Assay results from patent US20030157715A1, “Modulation of chromosome function by chromatin remodeling agents” (priority 2000, published 2003).

Experiments:
[1] = tested on: homozygous bw^D/bw^D flies; test: P31 fed to developing homozygous brown-dominant flies; format: in vivo; details: 40 homozygous bw^D males
[2] = tested on: variegating white reporter transgene flies (C3/2L, BL2/Y); test: P9 fed to flies with variegating white reporter transgene; format: in vivo, Drosophila melanogaster; details: transgene at the basis of chromosome 2L; data not shown
Source text: Although we favor the possibility that P9 and MATH20 reduce the spreading of heterochromatin toward w^m4 through long-range effects, we cannot completely rule out the possibility that a local binding site near the white gene (a local SAR) is involved. We attempted to address this issue by studying the effect of P9 on two different variegating miniwhite reporter genes called C3/2L and BL2/Y (Lu et al., 1996; Wallrath and Elgin, 1995). […] Nevertheless, we consider a local-acting mode less likely; the enormous target size of satellite III, 11 Mb versus 0.5 kb for a typical SAR, favors a long-range spreading model.

| SMILES | mean number of bristles on A6 [1] | suppression of PEV of a variegating white reporter transgene [2] |
| --- | --- | --- |
| CN(C)CCCNC(=O)CCNC(=O)c1nc(NC(=O)CCNC(=O)c2nc(NC(=O)CCNC(=O)c3cc(NC(=O)c4nc(NC(=O)CCNC(=O)c5nccn5C)cn4C)cn3C)cn2C)cn1C [Compound P31, Im-β-Im-Py-β-Im-β-Im-β-Dp] | 6 |  |
| CN(C)CCCNC(=O)CCNC(=O)c1cc(NC(=O)c2cc(NC(=O)c3cc(NC(=O)CCNC(=O)c4cc(NC(=O)c5cc(NC(=O)c6cccn6C)cn5C)cn4C)cn3C)cn2C)cn1C [Compound P9, PyPyPy-β-PyPyPy-β-Dp] |  | did not suppress PEV |
